Values of other authors in patent US5891889A, “Inhibitors of farnesyl-protein transferase” (Merck & Co., Inc., priority 1997, dated 1999).

Tested on: farnesyl-protein transferase
Conditions: via inhibition of HMG-CoA reductase; literature

CC[C@H](C)C(=O)O[C@H]1C[C@@H](C)C=C2C=C[C@H](C)[C@H](CC[C@@H]3C[C@@H](O)CC(=O)O3)[C@H]21 [lovastatin]
Indirect inhibition of farnesyl-protein transferase in vivo: Indirect inhibition of farnesyl-protein transferase in vivo has been demonstrated

CC[C@H](C)C(=O)O[C@H]1CCC=C2C=C[C@H](C)[C@H](CC[C@@H]3C[C@@H](O)CC(=O)O3)[C@H]21 [compactin]
Indirect inhibition of farnesyl-protein transferase in vivo: Indirect inhibition of farnesyl-protein transferase in vivo has been demonstrated
